# In article PMC10573254, “Development of Novel Class of Phenylpyrazolo[3,4-d]pyrimidine-Based Analogs with Potent Anticancer Activity and Multitarget Enzyme Inhibition Supported by Docking Studies” (International Journal of Molecular Sciences, 2023):
# Read-outs that look alike come from different tables or passages of the source.
# Legend:
# VEGFR-2 = VEGFR-2 (Homo sapiens, UniProt P35968); assay: In vitro VEGFR2 enzyme inhibitory assay; assay type: biochemical; conditions: for VEGFR2 %inh at conc 0.01: conc 0.01, unit not given; for VEGFR2 %inh at conc 0.1: conc 0.1, unit not given; for VEGFR2 %inh at conc 1: conc 1, unit not given; for VEGFR2 %inh at conc 10: conc 10, unit not given; for target selectivity index EGFR over VGFR-2: fold, EGFR^WT versus VGFR-2
# Protocol: (§1) Curve fitting was performed using GraphPad Prism.
# (§2) (1 picture or pasted object on this page, not shown here)
# HCT-116 = assay: MTT cytotoxicity assay, HCT-116; assay type: cell-based; conditions: Homo sapiens
# Protocol: (§5) The cytotoxic activity was assessed using the 3-(4,5-dimethylthiazol-2-yl)-2,5-diphenyl tetrazolium bromide (MTT) colorimetric assay, as reported previously [62, 63]. […] Briefly, the designated cell lines were cultured at a concentration of 5 × 10^4 cell/well in 96-well plates. The cells were incubated for 24 h under optimum conditions. Following this, the designated molecules were introduced (in serial dilutions from 0 to 50 μg/mL), and the cells were incubated for an additional 24 h. Following this, the media were withdrawn, and 100 μL of fresh medium was added. Then, 10 µL of the 12 mM MTT stock solution was administered to each well. The plates were then incubated for 4 h. Then, the cells were exposed to different compounds at the desired concentrations (0.01, 0.1, 1, 10, and 100 µM) or to 1% dimethyl sulfoxide (DMSO) for 48 and 72 h. […] Then, the optical density was measured at 590 nm with the microplate reader (Sunrise, TECAN, Inc., Morrisville, NC, USA).
# EGFR^WT = EGFR^WT (Homo sapiens, UniProt P00533); assay: In vitro EGFR enzyme inhibitory assay; assay type: biochemical; conditions: for EGFR %inh at conc 0.01: conc 0.01, unit not given; for EGFR %inh at conc 0.1: conc 0.1, unit not given; for EGFR %inh at conc 1: conc 1, unit not given; for EGFR %inh at conc 10: conc 10, unit not given
# Sequence of EGFR^WT (P00533 25-1210): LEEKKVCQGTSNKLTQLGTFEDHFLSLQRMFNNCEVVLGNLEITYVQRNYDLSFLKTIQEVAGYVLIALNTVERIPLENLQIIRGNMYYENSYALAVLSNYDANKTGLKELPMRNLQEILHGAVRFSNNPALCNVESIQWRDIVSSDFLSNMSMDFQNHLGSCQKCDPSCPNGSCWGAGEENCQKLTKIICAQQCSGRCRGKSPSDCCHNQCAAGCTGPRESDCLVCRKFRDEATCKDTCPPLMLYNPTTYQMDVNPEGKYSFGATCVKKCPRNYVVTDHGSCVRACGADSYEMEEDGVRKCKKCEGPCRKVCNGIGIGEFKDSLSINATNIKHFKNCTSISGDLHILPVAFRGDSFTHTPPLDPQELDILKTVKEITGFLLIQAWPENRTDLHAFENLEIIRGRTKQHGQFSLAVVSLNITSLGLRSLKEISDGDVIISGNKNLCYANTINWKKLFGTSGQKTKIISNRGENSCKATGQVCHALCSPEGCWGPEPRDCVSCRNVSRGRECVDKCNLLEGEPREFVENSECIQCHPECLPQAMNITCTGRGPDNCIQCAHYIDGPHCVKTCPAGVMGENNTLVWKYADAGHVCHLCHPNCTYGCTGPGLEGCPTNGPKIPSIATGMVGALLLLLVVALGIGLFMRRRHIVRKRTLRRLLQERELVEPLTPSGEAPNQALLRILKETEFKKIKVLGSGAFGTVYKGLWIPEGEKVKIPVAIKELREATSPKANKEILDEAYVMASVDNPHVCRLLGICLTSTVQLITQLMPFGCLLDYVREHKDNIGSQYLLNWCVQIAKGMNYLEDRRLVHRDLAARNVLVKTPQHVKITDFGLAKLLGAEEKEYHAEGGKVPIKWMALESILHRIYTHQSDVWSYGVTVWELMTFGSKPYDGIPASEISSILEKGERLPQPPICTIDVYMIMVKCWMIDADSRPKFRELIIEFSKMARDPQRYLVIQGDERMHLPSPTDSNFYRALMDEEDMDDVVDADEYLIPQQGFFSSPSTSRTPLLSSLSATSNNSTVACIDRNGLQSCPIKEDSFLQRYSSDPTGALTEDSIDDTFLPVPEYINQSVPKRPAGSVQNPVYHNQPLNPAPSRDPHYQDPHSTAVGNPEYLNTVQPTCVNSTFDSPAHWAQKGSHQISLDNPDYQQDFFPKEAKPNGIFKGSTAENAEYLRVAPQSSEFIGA
# WI-38 = assay: MTT assay on normal cell line WI-38; assay type: cell-based; conditions: normal human diploid fibroblasts
# Protocol: (§3) According to our design, the tested compounds are classified into four categories based on the length and the chemotype of the spacer (Figure 3). In the first category, we used monosubstituted hydrazone linker. […] The second category is represented by […] hydrazone linker.
# (§4) The cytotoxic activity was assessed using the 3-(4,5-dimethylthiazol-2-yl)-2,5-diphenyl tetrazolium bromide (MTT) colorimetric assay, as reported previously. Doxorubicin was used as a reference standard, and DMSO was used as a negative control. Briefly, the designated cell lines were cultured at a concentration of 5 × 10^4 cell/well in 96-well plates. The cells were incubated for 24 h under optimum conditions. Following this, the designated molecules were introduced (in serial dilutions from 0 to 50 μg/mL), and the cells were incubated for an additional 24 h. Following this, the media were withdrawn, and 100 μL of fresh medium was added. Then, 10 µL of the 12 mM MTT stock solution was administered to each well. The plates were then incubated for 4 h. […] An 85-μL aliquot of the media was removed from the wells, and 50 µL of DMSO was added to each well and mixed thoroughly with the pipette and incubated at 37 °C for 10 min. Then, the optical density was measured at 590 nm with the microplate reader (Sunrise, TECAN, Inc., Morrisville, NC, USA).
# [1] = test system: MCF-7, HCT116, and HePG-2; assay: MTT assay against three malignant cell lines (summary); assay type: cell-based; conditions: Homo sapiens, read-out: IC50 cytotoxicity (range over cell lines)
# Protocol: as §3, §4
# MCF-7 = assay: MTT cytotoxicity assay, MCF-7; assay type: cell-based; conditions: Homo sapiens, MCF7
# Protocol: as §5
# Topo-II [2] = target: T1, Topo-II (Homo sapiens, UniProt Q02880); assay: In vitro Topo II inhibitory assay; assay type: biochemical; conditions: for TOPO IiB %inh at conc 0.1: conc 0.1, unit not given; for TOPO IiB %inh at conc 1: conc 1, unit not given; for TOPO IiB %inh at conc 10: conc 10, unit not given; for TOPO IiB %inh at conc 100: conc 100, unit not given
# T1 construct: purchased
# T1 sequence (Q02880 2-1626): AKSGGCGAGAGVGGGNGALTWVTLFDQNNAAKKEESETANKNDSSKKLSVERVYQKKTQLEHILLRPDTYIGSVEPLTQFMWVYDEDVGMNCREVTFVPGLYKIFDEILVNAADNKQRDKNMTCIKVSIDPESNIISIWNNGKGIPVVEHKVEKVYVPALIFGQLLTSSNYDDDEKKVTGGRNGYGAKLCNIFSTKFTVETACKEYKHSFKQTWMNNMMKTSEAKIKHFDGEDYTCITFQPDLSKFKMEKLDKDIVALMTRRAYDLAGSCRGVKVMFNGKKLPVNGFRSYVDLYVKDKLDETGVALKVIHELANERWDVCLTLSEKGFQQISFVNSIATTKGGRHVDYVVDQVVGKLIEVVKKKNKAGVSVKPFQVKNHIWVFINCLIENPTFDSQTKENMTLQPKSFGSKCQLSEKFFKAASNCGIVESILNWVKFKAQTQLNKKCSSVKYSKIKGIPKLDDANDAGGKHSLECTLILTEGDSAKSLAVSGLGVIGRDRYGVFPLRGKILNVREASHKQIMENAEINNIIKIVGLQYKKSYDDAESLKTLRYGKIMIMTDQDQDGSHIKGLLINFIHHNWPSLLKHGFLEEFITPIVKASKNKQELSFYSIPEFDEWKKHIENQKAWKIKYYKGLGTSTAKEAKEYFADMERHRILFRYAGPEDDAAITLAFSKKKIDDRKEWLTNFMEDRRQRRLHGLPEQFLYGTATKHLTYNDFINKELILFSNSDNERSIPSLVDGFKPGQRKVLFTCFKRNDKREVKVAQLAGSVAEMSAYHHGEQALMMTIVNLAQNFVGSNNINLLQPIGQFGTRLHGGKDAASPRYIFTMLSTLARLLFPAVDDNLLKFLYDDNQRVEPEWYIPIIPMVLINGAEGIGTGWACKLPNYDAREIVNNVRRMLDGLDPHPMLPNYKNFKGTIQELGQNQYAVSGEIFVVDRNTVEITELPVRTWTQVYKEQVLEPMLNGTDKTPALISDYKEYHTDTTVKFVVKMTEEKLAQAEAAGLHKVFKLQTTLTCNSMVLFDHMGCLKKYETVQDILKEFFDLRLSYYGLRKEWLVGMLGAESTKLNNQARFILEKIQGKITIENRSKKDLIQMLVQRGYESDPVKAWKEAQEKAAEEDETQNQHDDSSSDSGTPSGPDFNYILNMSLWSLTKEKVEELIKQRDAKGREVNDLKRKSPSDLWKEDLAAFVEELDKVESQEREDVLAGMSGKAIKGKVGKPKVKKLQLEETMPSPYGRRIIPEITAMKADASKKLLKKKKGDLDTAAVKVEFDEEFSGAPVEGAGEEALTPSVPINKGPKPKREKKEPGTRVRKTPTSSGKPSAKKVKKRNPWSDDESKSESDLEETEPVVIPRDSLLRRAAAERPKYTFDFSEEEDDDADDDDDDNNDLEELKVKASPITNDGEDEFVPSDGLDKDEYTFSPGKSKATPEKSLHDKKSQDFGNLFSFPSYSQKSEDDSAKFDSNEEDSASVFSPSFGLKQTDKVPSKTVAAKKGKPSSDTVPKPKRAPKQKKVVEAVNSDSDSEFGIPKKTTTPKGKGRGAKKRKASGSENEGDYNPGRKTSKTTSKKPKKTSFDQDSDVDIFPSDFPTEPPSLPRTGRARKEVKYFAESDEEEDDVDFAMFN
# Protocol: as §1, §2
# Topo-II [3] = assay: In vitro Topo II inhibitory assay; assay type: biochemical, Human; conditions: fold, EGFR^WT versus Topo-II
# Protocol: as §1, §2
# HePG-2 = assay: MTT cytotoxicity assay, HePG-2; assay type: cell-based; conditions: Homo sapiens, HepG2
# Protocol: as §4
# EGFR^T790M = EGFR^T790M (Homo sapiens, UniProt P00533, T790M); assay: In vitro EGFR T790M kinase inhibitory assay
# Sequence of EGFR^T790M (P00533 25-1210 T790M): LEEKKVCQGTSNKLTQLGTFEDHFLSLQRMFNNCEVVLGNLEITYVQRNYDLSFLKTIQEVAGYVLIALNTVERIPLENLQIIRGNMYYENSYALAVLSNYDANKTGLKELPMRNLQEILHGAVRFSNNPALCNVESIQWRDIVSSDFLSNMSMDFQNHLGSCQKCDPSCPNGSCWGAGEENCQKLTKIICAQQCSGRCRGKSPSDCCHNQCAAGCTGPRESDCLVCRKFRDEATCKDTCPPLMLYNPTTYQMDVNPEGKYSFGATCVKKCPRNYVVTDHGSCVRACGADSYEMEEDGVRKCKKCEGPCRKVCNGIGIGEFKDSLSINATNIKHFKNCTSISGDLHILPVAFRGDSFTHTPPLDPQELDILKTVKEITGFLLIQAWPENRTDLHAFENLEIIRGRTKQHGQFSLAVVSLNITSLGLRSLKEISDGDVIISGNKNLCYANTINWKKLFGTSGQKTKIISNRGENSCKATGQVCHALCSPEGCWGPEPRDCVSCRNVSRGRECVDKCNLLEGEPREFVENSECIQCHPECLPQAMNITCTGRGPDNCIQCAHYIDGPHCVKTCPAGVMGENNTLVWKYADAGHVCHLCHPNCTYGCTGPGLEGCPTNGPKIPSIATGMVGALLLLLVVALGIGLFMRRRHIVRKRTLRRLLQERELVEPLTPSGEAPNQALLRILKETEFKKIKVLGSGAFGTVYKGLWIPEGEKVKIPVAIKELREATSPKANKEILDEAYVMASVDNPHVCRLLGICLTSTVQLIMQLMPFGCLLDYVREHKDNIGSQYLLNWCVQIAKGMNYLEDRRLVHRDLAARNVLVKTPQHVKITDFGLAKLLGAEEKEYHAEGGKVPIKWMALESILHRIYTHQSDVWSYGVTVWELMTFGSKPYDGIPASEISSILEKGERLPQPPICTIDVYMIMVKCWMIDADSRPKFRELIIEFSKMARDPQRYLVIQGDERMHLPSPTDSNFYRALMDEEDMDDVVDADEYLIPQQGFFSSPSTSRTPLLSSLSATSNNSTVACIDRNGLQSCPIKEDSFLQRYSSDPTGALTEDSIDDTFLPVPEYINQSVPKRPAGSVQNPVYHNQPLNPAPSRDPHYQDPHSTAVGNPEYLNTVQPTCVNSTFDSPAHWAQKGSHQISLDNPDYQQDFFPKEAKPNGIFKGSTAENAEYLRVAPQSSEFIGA
# Protocol: The assays were conducted in Vacsera (Giza, Egypt). Curve fitting was performed using GraphPad Prism. Data are represented as means ± SD from three independent experiments.
# Assay : EGFR-T490M kinase assay
# Reader : Tecan-spark reader
# Kit used : BPS bioscience EGFR assay kit.
# MCF-7 cells [4] = assay: Annexin V-FITC/PI apoptosis assay; assay type: cell-based, human; conditions: MCF-7, 3.81 μM
# Protocol: We used annexin V-binding studies via flow cytometer to confirm the apoptosis induction by our compound. The apoptotic nature of 5i against MCF-7 cells was tested via flow cytometry detection after double-staining with Annexin V-FITC and propidium iodide (PI).
# Annexin V-FITC apoptosis assay was conducted utilizing the Annexin V-FITC/PI double staining detection kit (BD Pharmingen, San Diego, CA, USA), as described elsewhere.
# MCF-7 cells [5] = assay: Cell cycle analysis (propidium iodide flow cytometry); assay type: cell-based, human; conditions: MCF-7, 3.81 μM for 24 h (text: 1 μM)
# [6] = supplement lab report, read-out: VEGFR2 IC50 (lab report) (converted)
# [7] = HCT-116, read-out: IC50 HCT-116, MTT, colon cancer cells
# [8] = HCT-116, 24 h incubation, read-out: IC50 HCT116 24 h
# [9] = HCT-116, 48 h incubation, read-out: IC50 HCT116 48 h
# [10] = HCT-116, 72 h incubation, read-out: IC50 HCT116 72 h
# [11] = supplement lab report, read-out: EGFR IC50 (lab report) (converted)
# [12] = 24 h incubation, read-out: IC50 MCF-7 24 h
# [13] = 48 h incubation, read-out: IC50 MCF-7 48 h
# [14] = 72 h incubation, read-out: IC50 MCF-7 72 h
# [15] = MTT, breast cancer cells, read-out: IC50 MCF-7
# [16] = supplement lab report, Human DNA Topoisomerase 2B Kit, read-out: TOP2a IC50 (lab report) (converted)
# [17] = 24 h incubation, read-out: IC50 HePG-2 24 h
# [18] = 48 h incubation, read-out: IC50 HePG-2 48 h
# [19] = 72 h incubation, read-out: IC50 HePG-2 72 h
# [20] = MTT, liver cancer cells, read-out: IC50 HePG-2
compound,measurement,setting,value
"Cc1nc(NNC(=S)Nc2ccccc2)c2cnn(-c3ccccc3)c2n1 [Compound 9e, 2-(6-Methyl-1-phenyl-1H-pyrazolo[3,4-d]pyrimidin-4-yl)-N-phenylhydrazinecarbothioamide]",VEGFR2 %inh at conc 0.01,VEGFR-2,14%
same,VEGFR2 %inh at conc 0.1,VEGFR-2,26%
same,VEGFR2 %inh at conc 1,VEGFR-2,46%
same,VEGFR2 %inh at conc 10,VEGFR-2,72%
same,target selectivity index EGFR over VGFR-2,VEGFR-2,21
same,IC50,VEGFR-2; read-out: IC50 VGFR2,16.2 ± 0.36 µM
same,IC50,VEGFR-2; [6],16.2 µM
same,IC50,HCT-116; [7],6.87 ± 0.5 µM
same,IC50,HCT-116; [8],6.87 ± 0.5 µM
same,IC50,HCT-116; [9],6.77 ± 0.4 µM
same,IC50,HCT-116; [10],5.55 ± 0.4 µM
same,EGFR %inh at conc 0.01,EGFR^WT,20%
same,EGFR %inh at conc 0.1,EGFR^WT,42%
same,EGFR %inh at conc 1,EGFR^WT,58%
same,EGFR %inh at conc 10,EGFR^WT,83%
same,IC50,EGFR^WT; read-out: IC50 EGFR^WT,0.77 ± 0.018 µM
same,IC50,EGFR^WT; [11],0.77 µM
same,IC50,"WI-38; Homo sapiens, WI-38, MTT",> 35 µM
same,IC50,WI-38; MTT,66 ± 0.23 µM
same,IC50,[1],3 to 10 µM
same,IC50,MCF-7; [12],8.99 ± 0.5 µM
same,IC50,MCF-7; [13],8.16 ± 0.8 µM
same,IC50,MCF-7; [14],7.45 ± 0.7 µM
same,IC50,MCF-7; [15],8.99 ± 0.5 µM
same,TOPO IiB %inh at conc 0.1,Topo-II [2],4%
same,TOPO IiB %inh at conc 1,Topo-II [2],16%
same,TOPO IiB %inh at conc 10,Topo-II [2],34%
same,TOPO IiB %inh at conc 100,Topo-II [2],65%
same,IC50,Topo-II [2]; read-out: IC50 Topo-II,24.6 ± 0.54 µM
same,IC50,Topo-II [2]; [16],24.6 µM
same,target selectivity index EGFR over Topo-II,Topo-II [3],31
same,melting point,,281 to 282 °C
same,IC50,HePG-2; [17],7.8 ± 0.4 µM
same,IC50,HePG-2; [18],8.28 ± 0.8 µM
same,IC50,HePG-2; [19],5.93 ± 0.5 µM
same,IC50,HePG-2; [20],7.8 ± 0.4 µM
"CC(=NNc1nc(C)nc2c1cnn2-c1ccccc1)c1ccccc1 [Compound 5i, 6-Methyl-1-phenyl-4-(2-(1-phenylethylidene)hydrazinyl)-1H-pyrazolo[3,4-d]pyrimidine]",VEGFR2 %inh at conc 0.01,VEGFR-2,7.5%
same,VEGFR2 %inh at conc 0.1,VEGFR-2,19%
same,VEGFR2 %inh at conc 1,VEGFR-2,58%
same,VEGFR2 %inh at conc 10,VEGFR-2,84%
same,target selectivity index EGFR over VGFR-2,VEGFR-2,20
same,IC50,VEGFR-2; read-out: IC50 VGFR2,7.6 ± 0.15 µM
same,IC50,VEGFR-2; [6],7.58 µM
same,IC50,EGFR^T790M,0.56 ± 0.04 µM
same,EGFR T790M %inh at conc 0.01,EGFR^T790M; conc 0.01 (conc.ng/ml),37%
same,EGFR T790M %inh at conc 0.1,EGFR^T790M; conc 0.1 (conc.ng/ml),50%
same,EGFR T790M %inh at conc 1,EGFR^T790M; conc 1 (conc.ng/ml),76%
same,EGFR T790M %inh at conc 10,EGFR^T790M; conc 10 (conc.ng/ml),89%
same,Apoptosis Total,MCF-7 cells [4]; 24 h,36.06%
same,Necrosis,MCF-7 cells [4]; 24 h,4.33%
same,Apoptosis Early,MCF-7 cells [4]; 24 h (text: 48 h),12.62%
same,Apoptosis Late,MCF-7 cells [4]; 24 h (text: 48 h),19.11%
same,IC50,HCT-116; [7],4.38 ± 0.2 µM
same,IC50,HCT-116; [8],4.38 ± 0.2 µM
same,IC50,HCT-116; [9],4.01 ± 0.3 µM
same,IC50,HCT-116; [10],2.76 ± 0.3 µM
same,DNA content %G0-G1,MCF-7 cells [5],49.63%
same,DNA content %Pre-G1,MCF-7 cells [5],36.06%
same,DNA content %S,MCF-7 cells [5],43.12%
same,EGFR %inh at conc 0.01,EGFR^WT,36%
same,EGFR %inh at conc 0.1,EGFR^WT,52%
same,EGFR %inh at conc 1,EGFR^WT,73%
same,EGFR %inh at conc 10,EGFR^WT,88%
same,IC50,EGFR^WT; [11],0.187 µM
same,IC50,[1],3 to 10 µM
same,IC50,MCF-7; [12],3.81 ± 0.3 µM
same,IC50,MCF-7; [13],3.34 ± 0.2 µM
same,IC50,MCF-7; [14],1.24 ± 0.3 µM
same,IC50,MCF-7; [15],3.81 ± 0.3 µM
same,TOPO IiB %inh at conc 0.1,Topo-II [2],13%
same,TOPO IiB %inh at conc 1,Topo-II [2],27%
same,TOPO IiB %inh at conc 10,Topo-II [2],51%
same,TOPO IiB %inh at conc 100,Topo-II [2],74%
same,IC50,Topo-II [2]; read-out: IC50 Topo-II,24.7 ± 0.51 µM
same,IC50,Topo-II [2]; [16],24.7 µM
same,target selectivity index EGFR over Topo-II,Topo-II [3],66
same,melting point,,245 to 247 °C
same,IC50,HePG-2; [17],6.38 ± 0.1 µM
same,IC50,HePG-2; [18],3.34 ± 0.2 µM
same,IC50,HePG-2; [19],2.42 ± 0.2 µM
same,IC50,HePG-2; [20],6.38 ± 0.1 µM
